Laboratory results as given in patent publication US20220409608A1, “DIMERIC NAPHTHALIMIDE FORMULATIONS” (ALUCENT BIOMEDICAL, INC., priority 2019, published 2022).

What was measured:
Type in all cases: physicochemical
[1] = Combination of exemplary composition and paclitaxel injection solution, UPLC; details: for Compound of Formula (I) (HPLC area-%) / Total impurities (HPLC area-%): equal volumes of formulation and paclitaxel injection solution (6 mg/mL); for Compound of Formula (I) (HPLC area-%) / Total impurities (HPLC area-%) / Stability after being combined in the same composition: room temperature; for Stability after being combined in the same composition: seven hours after combining Compound of Formula (I) formulation and paclitaxel
Protocol: (§1) The purity of a composition was analyzed by UPLC on a 2.1×100 mm C18 column with 1.7 μm packing. The analytical method was a 7 minute gradient at 30° C. and a flowrate of 0.61 mL/min consisting of acetonitrile, water, and trifluoracetic acid. Absorption was measured at 210 nm and 440 nm.
Equal volumes of a formulation from Example 1 and paclitaxel injection solution (6 mg/mL; used as received from manufacturer) were combined in an amber scintillation vial and stored at room temperature. The resulting mixture was a clear yellow solution. An aliquot was obtained, diluted 1:10 with 0.1% aqueous TFA and analyzed by UPLC as described herein. Another aliquot was obtained, 7 hours after preparation of the mixture, and similarly diluted and analyzed.

[2] = Stability of formulations at 40° C. at various pH values (impurities by UPLC)
Protocol: as §1
To determine the stability of the formulations described herein, the amount of impurities was measured. A formulation was added to a 10 mL amber vial and stored at 40° C. in a constant temperature chamber. At the desired time point(s), the formulation was analyzed by UPLC and the pH was measured. No change in physical appearance was observed.

[3] = Combination of exemplary composition and radiographic contrast agent, UPLC; details: for Increase in the amount of impurities of Compound of Formula (I), HPLC chromatograms: initial and 24-hour timepoints
Protocol: as §1
Equal volumes of a formulation from Example 1 and radiographic contrast agent (Omnipaque or Isovue), as received from the manufacturer, were drawn into separate syringes. The two syringes were connected to an indeflator by a three-way joint/stopcock. The indeflator was evacuated and the mixtures from both syringes were transferred into the indeflator. The indeflator was then inverted six times to ensure complete mixing of the mixtures. The resulting mixture was a yellow/orange translucent mixture, stored in an amber scintillation vial at room temperature, and analyzed by UPLC upon storage and after 24 hours.

[4] = equal volumes of formulation and Isovue, room temperature, t = 0 hours
[5] = equal volumes of formulation and Isovue, room temperature, t = 24 hours
[6] = equal volumes of formulation and Omnipaque, room temperature, t = 0 hours
[7] = equal volumes of formulation and Omnipaque, room temperature, t = 24 hours

NCCOCCOCCNc1ccc2c3c(cccc13)C(=O)N(CCOCCOCCN1C(=O)c3cccc4c(NCCOCCOCCN)ccc(c34)C1=O)C2=O [Compound of Formula (I), 2,2′-((ethane-1,2-diylbis(oxy))bis(ethane-2,1-diyl))bis(6-((2-(2-(2-aminoethoxy)ethoxy)ethyl)amino)-1H-benzo[de]isoquinoline-1,3(2H)-dione)]
Compound of Formula (I) (HPLC area-%) ([1]; 0 hours): 98.9 HPLC area-%
Total impurities (HPLC area-%) ([1]; 0 hours): 1.1 HPLC area-%
Compound of Formula (I) (HPLC area-%) ([1]; 1 hour): 98.9 HPLC area-%
Total impurities (HPLC area-%) ([1]; 1 hour): 1.1 HPLC area-%
Compound of Formula (I) (HPLC area-%) ([1]; 4 hours): 98.9 HPLC area-%
Total impurities (HPLC area-%) ([1]; 4 hours): 1.1 HPLC area-%
Compound of Formula (I) (HPLC area-%) ([1]; 7 hours): 98.9 HPLC area-%
Total impurities (HPLC area-%) ([1]; 7 hours): 1.1 HPLC area-%
Increase in the amount of impurities of Compound of Formula (I), HPLC chromatograms ([1]; mixture with paclitaxel, 1- and 7-hour time points, FIG. 7): no increase
Stability after being combined in the same composition [1]: stable
Increase in impurity concentration ([2]; composition at a pH ranging from 5 to 7): minimal
Degradation in compositions ([2]; compositions having a pH of less than 5 or greater than 7): degrade appreciably
Stability when combined with a radiographic contrast agent ([3]; after 24 hours, room temperature): stable
Compound of Formula (I) (HPLC area-%) [3, 4]: 98.98 HPLC area-%
Total impurities (HPLC area-%) [3, 4]: 1.02 HPLC area-%
Compound of Formula (I) (HPLC area-%) [3, 5]: 98.97 HPLC area-%
Total impurities (HPLC area-%) [3, 5]: 1.03 HPLC area-%
Compound of Formula (I) (HPLC area-%) [3, 6]: 98.98 HPLC area-%
Total impurities (HPLC area-%) [3, 6]: 1.02 HPLC area-%
Compound of Formula (I) (HPLC area-%) [3, 7]: 98.95 HPLC area-%
Total impurities (HPLC area-%) [3, 7]: 1.05 HPLC area-%
Increase in the amount of impurities of Compound of Formula (I), HPLC chromatograms ([3]; mixture with Isovue, FIG. 5): no increase
Increase in the amount of impurities of Compound of Formula (I), HPLC chromatograms ([3]; mixture with Omnipaque, FIG. 6): no increase

CC(=O)O[C@H]1C(=O)[C@@]2(C)[C@H]([C@H](OC(=O)c3ccccc3)[C@]3(O)C[C@H](OC(=O)[C@H](O)[C@@H](NC(=O)c4ccccc4)c4ccccc4)C(C)=C1C3(C)C)[C@]1(OC(C)=O)CO[C@@H]1C[C@@H]2O [paclitaxel, reference compound]
Increase in the amount of impurities of paclitaxel, HPLC chromatograms ([1]; mixture of Compound of Formula (I) and paclitaxel, 1- and 7-hour time points, FIG. 8): no increase
Stability after being combined in the same composition [1]: stable
